Legend:
[1] = tested on: MDA-MB-468 (GFP-LC3) cells; test: GFP-LC3 punctae (autophagosome formation) microscopy assay; format: cell-based, human; details: for GFP-LC3 punctae per cell: drug concentrations up to 100 μM; for EC50: Homo sapiens, MDA-MB-468, 24 hours of treatment, read-out: potency (EC50±S.E.M.) of autophagosome formation (GFP-LC3 punctae); for concentration at which precipitous cell death occurred: following 24 hours of treatment
Protocol: The human GFP-LC3 expression plasmid, pEGFP-LC3 (a gift from Drs. Grazia Ambrosini and Gary K. Schwartz, MSKCC), was stably transfected into MDA-MB-468 and selected with 0.5 mg/ml G418 sulfate. Stable populations were generated and compared to parental MDA-MB-468 for Sigma1 expression and autophagic and growth inhibitory response to Sigma ligands. GFP-LC3 translocation (punctae formation) was assessed by microscopy in MDA-MB-468 (GFP-LC3) stable cell populations. For microscopy-based experiments, cells were seeded onto Lab-Tek II glass chamber slides (Nalge Nunc International). […] Images of GFP-LC3 punctae were acquired with a Zeiss Axioplan 2 Imaging widefield microscope using Axiovision LE software. Punctae were counted using the spot quantitation program in the Fluoro-Chem software package (Alpha Innotech) and confirmed in parallel by manual counting. Autophagosome formation in MDAMB-468 (GFP-LC3) cells was quantitated as the mean number of GFP-LC3 punctae per GFP positive cell.
Initially, an established immunoblot-based assay to detect microtubule associated protein light chain 3 (LC3) lipidation was used to test for the activation of autophagy. […] Since transient transfections can produce spurious GFP-LC3 aggregates, stable GFP-LC3 transfected populations of MDA-MB-468 (GFP-LC3) were generated. […]

[2] = tested on: MDA-MB-468 breast tumor cells; test: Akt, S6K and ERK phosphorylation immunoblots; format: cell-based, human; details: 10 μM, 24 hours
Protocol: FIG. 40, comprising FIGS. 40A-40C, illustrates Sigma1 antagonist modulation of Akt, S6K, and ERK phosphorylation. MDA-MB-468 breast tumor cells were treated for 24 hours with 10 μM IPAG (Sigma1 antagonist) or (+)SKF-10047 (SKF, Sigma1 agonist). Treated cells were harvested and cellular proteins were extracted with a buffer containing 1% Sodium Dodecyl Sulfate (SDS) and deoxycholate (DOC), supplemented with phosphatase and protease inhibitors. FIG. 40A is an image of an immunoblot illustrating Akt phosphorylation. […] Akt phosphorylation at threonine 308 was not altered in any of the samples (not shown). Equivalent loading was confirmed with an anti-GAPDH antibody. FIG. 40B is an image of an immunoblot illustrating phosphorylation. Phosphorylation of mTOR substrate, p70S6K at threonine 389 decreased 3-fold in IPAG, but not SKF treated cells. Total p70S6K was immunoblotted as a loading control. FIG. 40C is an immunoblot illustrating that p44/42 ERK1/2phosphorylation at threonine 202 and tyrosine 204 was abrogated by 24 hour treatment with IPAG. Data shown is representative of two independent experiments.

[3] = tested on: T47D and MDA-MB-468 cells; test: Cell cycle profile (G1, S, G2 phase cells); format: cell-based, human; details: 24 hours; IPAG 1 μM (T47D) or 10 μM (MDA-MB-468); (+)-SKF-10047 10 μM
Protocol: FIG. 30, comprising FIGS. 30A-30B, illustrates that Sigma1 antagonists mediate cell cycle arrest. […] FIG. 30A is a graph illustrating the percentage of G1, S, and G2 phase cells in T47D cells treated for 24 hours with DMSO (vehicle control), 1 μM IPAG (Sigma1 antagonist), or 10 μM (+)SKF-10047 (Sigma1 agonist). FIG. 30 B is a graph illustrating the percentage of G1, S, and G2 phase cells in MDA-MB-468 cells treated for 24 hours with DMSO (vehicle control), 10 μM IPAG (Sigma1 antagonist), or 10 μM (+)-SKF-10047 (Sigma1 agonist).

[4] = tested on: T-47D breast adenocarcinoma cells; test: Cell size by flow cytometry (mean FSC-H, G1 phase); format: cell-based, human; details: 10 μM, 24 hours; control 412±5
Protocol: FIG. 31A is a differential interference contrast (DIC) image of MDA-MB-468 breast adenocarcinoma cells treated for ˜20 hours with DMSO (drug vehicle control), 10 μM IPAG (antagonist) or 10 μM PRE084 (agonist). A twenty-micron bar is shown in each image. Data are presented as mean±SEM. FIG. 31B is a graph illustrating the finding that IPAG diminished the mean cell size (FSC-H) of MDA-MB-468 breast tumor cells in a time-responsive manner. The mean FSC-H of 370±5 at to decreased to 323±4 after 24 hours of IPAG treatment and to 267±2 after 48 hours of treatment. Two-tailed t-tests were performed to determine statistical significance. For IPAG treatment compared to control (DMSO) and Sigma agonists (SKF and PRE084), P=0.0002 at d1 and P=0.00013 at d2. Data were generated from three to five independent determinations for each time-point. Flow cytometry was used to measure mean cell size (mean FSC-H) of T-47D breast adenocarcinoma cells. FIG. 31C is a bar graph illustrating T-47D cells treated for 24 hours with 10 μM indicated Sigma ligand. IPAG and BD 1047 (Sigma1 antagonists) diminished cell size from a mean FSC-H of 412±5 for control (DMSO) cells versus 341±7 and 381±8 for IPAG and BD1047 treated cells, respectively. […] Data represent 5 independent determinations (*P<0.05, ***P<0.001). FIG. 31D is a bar graph illustrating how IPAG (antagonist) decreases cell size in a dose responsive manner. T-47D were treated for 24 h with 1 and 10 μM IPAG, and mean FSC-H was measured. FIG. 31E is a graph illustrating that T47D cell size decreases over time. T-47D cells were treated for a total of 48 hours with 10 μM of the indicated Sigma ligands. […] Neither Sigma1 agonist, (+)-SKF10047 and PRE084, altered cell size. […] Two-tailed t-tests were performed to determine statistical significance. For IPAG treatment compared to control (DMSO) and Sigma1 agonists (SKF and PRE084), P=0.0002 at d1 and P<0.0001 at d2. For FIGS. 31B-31E, the mean FSC-H was determined for each cell cycle population (i.e., G1, S, G2/M), and data is shown for G1 phase cells. S and G2/M phase cells responded similarly (data not shown).

[5] = tested on: MCF-7, T47D and MDA-MB-468 cells; test: Cell proliferation by Alamar blue reduction, breast adenocarcinoma cultures; format: cell-based, human; design: anti-proliferative effect: dose or concentration left out as unconfirmed; details: for anti-proliferative effect: 4 days; for inhibition of cell proliferation: after 4 days of treatment, six drug concentrations
Text: In vitro cell proliferation was quantitated by Alamar blue reduction. The anti-proliferative effects of six drug concentrations of the indicated drugs were quantitated after 4 days of treatment.

[6] = tested on: MDA-MB-468 cells; test: Cell death by trypan blue exclusion; format: cell-based, human; details: 3-MA alone (5 mM), 24 hours
Protocol: Trypan blue exclusion and propidium iodide staining were used to quantify general cell death and the presence of apoptotic cell death was confirmed by immunoblot. The percentage of dead cells in a given population was determined by quantifying the number of trypan blue positive (dead) cells and dividing by the total number of trypan blue positive and negative cells.

[7] = tested on: MDA-MB-468 breast adenocarcinoma cells; test: LC3 lipidation (LC3II) immunoblot; format: cell-based, human; details: 10 μM, 24 hours
Protocol: Cells were lysed and proteins extracted in a modified RIPA buffer (25 mM Tris-HCl pH 7.6, 150 mM NaCl, 1% NP-40, 1% sodium deoxycholate and 0.1% SDS) supplemented with 10% glycerol (volume/volume), complete protease inhibitor cocktail (Roche), and Halt phosphatase inhibitor cocktail (Pierce). Approximately 10-20 μg of detergent soluble protein were resolved on NOVEX 10-20% polyacrylamide Tris-glycine gels (InVitrogen). Immunoblots were performed in a 20 mM Tris-buffered 137 mM saline solution (pH 7.6) containing 0.1% Tween-20 (polyoxyethylene (20) sorbitan monolaurate) and 5% (weight/volume) blotting grade non-fat dry milk (BioRad). The Lumigen PS-3 enhanced chemiluminescence kit (GE Healthcare) was used to reveal immunoblotted proteins.
Initially, an established immunoblot-based assay to detect microtubule associated protein light chain 3 (LC3) lipidation was used to test for the activation of autophagy. […] Since transient transfections can produce spurious GFP-LC3 aggregates, stable GFP-LC3 transfected populations of MDA-MB-468 (GFP-LC3) were generated. These cells were treated for 24 hours with increasing concentrations of Sigma receptor antagonists and agonists, and were compared to basal and DMSO treated controls (FIGS. 4B & 4C).

[8] = tested on: MCF7 tumor xenograft; test: MCF7 tumor xenograft, tamoxifen potentiation by rimcazole; format: in vivo, athymic mice; details: for inhibition of tumor growth: after 11 days of daily i.p. treatment, tamoxifen 1 mg/kg, Rimcazole 10 mg/kg, each alone
Protocol: Preliminary tumor xenograft experiments were performed according to MSKCC Tumor Assessment Core facility protocol. Briefly, β-estradiol treated athymic mice were injected with MCF7 cells, and drug treatment was initiated when mean tumor volume reached approximately 140 mm^3, which occurred 17 days following MCF-7 injection. Daily i.p. drug injections were performed for up to 11 days, and tumor volume was quantified by the formula: tumor volume=L×W^2×π/6. In this pilot experiment, 3-5 mice were tested per group. […] An extended time course, with more mice per group and multiple drug doses, may be performed to determine whether the tumor growth inhibitory effect of combined drug treatment is additive or synergistic.

## C=CCN1CC[C@]2(C)c3cc(O)ccc3C[C@H]1[C@H]2C (relative stereo) [(+)-SKF10047, [2S-(2α,6α,11R*]-1,2,3,4,5,6-hexahydro-6,11-dimethyl-3-(2-propenyl)-2,6-methano-3-benzazocin-8-ol]
[1]; 24 hours
  GFP-LC3 punctae per cell: ≤ 5±1 punctae per cell
[2]
  decrease of Akt phosphorylation at serine 473: did not alter Akt phosphorylation
[3]
  cell cycle profile: did not present significant difference in cell cycle profile
[4]
  mean FSC-H (relative cell size): did not alter cell size
[5]
  anti-proliferative effect: ineffective

## CC(C)=CCN1CC[C@]2(C)c3cc(O)ccc3C[C@H]1[C@H]2C (relative stereo) [(+)-pentazocine, (+)-[2S-(2,6,11R*)]-1,2,3,4,5,6-hexahydro-6,1-dimethyl-3-(3-methyl-2-butenyl)-2,6-methano-3-benzazocin-8-ol]
[1]; 24 hours
  GFP-LC3 punctae per cell: ≤ 6±1 punctae per cell
[5]
  anti-proliferative effect: ineffective

## CN(C)CCN(C)CCc1ccc(Cl)c(Cl)c1 [BD1047, N′-[2-(3,4-dichlorophenyl)ethyl]-N,N,N′-trimethylethane-1,2-diamine]
[4]
  mean FSC-H (relative cell size): 381±8
[5]
  inhibition of cell proliferation: also inhibited cell proliferation

## CN1CCN(CCc2ccc(Cl)c(Cl)c2)CC1 [BD1063, 1-[2-(3,4-dichlorophenyl)ethyl]-4-methylpiperazine]
[5]
  inhibition of cell proliferation: also inhibited cell proliferation

## Cn1cnc(N)c2ncnc1-2 [Compound 3-MA, 3-methyladenine]
[1]; 5 mM 3-MA alone, 24 hours
  punctae per cell: 5±1 punctae per cell
[6]
  dead cells per well: 6±2%

## COc1cccc2c1CCCC2CCCN1CCN(C2CCCCC2)CC1 (centres unmarked) [PB28, 1-cyclohexyl-4-[3-(5-methoxy-1,2,3,4-tetra-hydronaphthalen-1-yl)propyl]piperazine]
[1]
  EC50: 52 ± 9 µM
  concentration at which precipitous cell death occurred: 100 µM
[7]
  conversion of LC3 to LC3II (autophagosome formation): converted LC3 to LC3II

## C[C@@H]1CN(CCCn2c3ccccc3c3ccccc32)C[C@H](C)N1 [rimcazole, 9-{3-[(3R,5S)-3,5-dimethylpiperazin-1-yl]propyl}-9H-carbazole]
[8]
  inhibition of tumor growth: approximately 50%
[8]; tamoxifen (1 mg/kg) and Rimcazole (10 mg/kg) combined, 11 day time course
  tumor growth: completely inhibited
[1]
  EC50: 50 ± 8 µM
  concentration at which precipitous cell death occurred: 100 µM
[7]
  conversion of LC3 to LC3II (autophagosome formation): converted LC3 to LC3II
[5]
  inhibition of cell proliferation: inhibited cell proliferation with comparable potencies in all cell lines

## CC/C(=C(\c1ccccc1)c1ccc(OCCN(C)C)cc1)c1ccccc1 [tamoxifen, (Z)-2-[4-(1,2-diphenylbut-1-enyl)phenoxy]-N,N-dimethylethanamine]
[8]
  inhibition of tumor growth: approximately 50%
[5]
  inhibition of cell proliferation: inhibited cell proliferation with similar potencies

— patent US9388126B2, “Sigma receptor ligands and methods of modulating cellular protein homeostasis using same” (Drexel University, priority 2012, dated 2016)
